# In ChEMBL document CHEMBL1158251, “Determination of oenothein B as the active 5-alpha-reductase-inhibiting principle of the folk medicine Epilobium parviflorum” (J Nat Prod, 1996):
# Assay: Inhibition of 5alpha reductase from human prostatic hyperplasia
row,IC50,Structure (SMILES)
1,22 µM,O=C(O[C@H]1[C@@H]2OC(=O)c3cc(O)c(O)c(O)c3-c3c4cc(c(O)c3O)Oc3c(cc(O)c(O)c3O)C(=O)O[C@H]3C(O)O[C@@H]5COC(=O)c6cc(O)c(O)c(O)c6-c6c(cc(c(O)c6O)Oc6c(cc(O)c(O)c6O)C(=O)O[C@H]1C(O)O[C@@H]2COC4=O)C(=O)O[C@H]5[C@@H]3OC(=O)c1cc(O)c(O)c(O)c1)c1cc(O)c(O)c(O)c1 (some centres not stated) [OENOTHEIN B]
2,0.01 µM,CC(C)(C)NC(=O)[C@H]1CC[C@H]2[C@@H]3CC[C@H]4NC(=O)C=C[C@]4(C)[C@H]3CC[C@]12C [FINASTERIDE]
